Measured values as given in patent publication US11813339B2, “Method of use for therapeutic bone agents” (IGL Pharma, Inc., priority 2017, dated 2023).
Where two headings read alike, the source gives them in different places.

Key:
osteosarcoma = assay: Treatment of dogs with osteosarcoma with LSA Sm-153-DOTMP; type: in vivo
Description: Seven dogs with osteosarcoma were treated with the Sm-153-DOTMP made from LSA Sm-153 of Example 1 at 1 mCi/kg.

tumor = assay: Ascending dose trial in dogs (MTD); type: in vivo; conditions: for maximum tolerated dose: dogs
Text: The maximum tolerated dose is 1.75-2.0 mCi/kg; whereas for Sm-153-EDTMP the maximum tolerated dose was 1.0 mCi/kg. Stable or improved indices were experienced by 7 of 12 dogs.

[1] = Residual activity in bone cancer patients after repeated doses, NaI crystal detection; type: in vivo; conditions: 30 mCi doses, after receiving 7 doses (of 10); activity due to long-lived radionuclidic impurities
Text: The Sm-153 prepared as in Example A was used to prepare doses of Sm-153-EDTMP. These doses were used to treat patients suffering from bone cancer. Patients were repeatedly treated (10 times) with 30 mCi of Sm-153-EDTMP as prepared in this example. The first 5 doses were given at 3 month intervals, and the second five doses given at 6 month intervals. After the decay of Sm-153, a NaI crystal was used to detect the amount of residual activity in the patients. […] The activity was due to long-lived radionuclidic impurities created during the target irradiation process.

[2] = system: prostate and breast bone metastases; conditions: cited from earlier work; for long-lived impurities (Eu isotopes) in patients on multiple doses: high-resolution gamma spectroscopy whole body counters
[3] = about 550 patients, repeated 30 mCi doses

| Substance | myelosuppression relative to similar dogs treated with 1 mCi/kg of HSA Sm-153-EDTMP (osteosarcoma; evidenced from the nadir in platelets and neutrophils) | uptake in the tumor (osteosarcoma; seven dogs with osteosarcoma, 1 mCi/kg) | stable or improved indices (tumor; ascending dose trial) | uptake in tumor (tumor; ascending dose trial of 13 dogs starting at 1.5 mCi/kg) | maximum tolerated dose (tumor) | residual activity detected in patients after decay of Sm-153 [1] | lesion response [2, 3] | survival [2, 3] | long-lived impurities (Eu isotopes) in patients on multiple doses [2] | long-lived impurities (Eu isotopes) in patients on multiple doses ([2]; listed as HSA Sm-153-EDTMP) |
| --- | --- | --- | --- | --- | --- | --- | --- | --- | --- | --- |
| Sm-153 1,4,7,10-tetraazacyclododecanetetramethylenephosphonic acid [LSA Sm-153-DOTMP] | about one half | uptake in the tumor for all dogs | 7 of 12 | uptake in tumor for all seven dogs tested | 1.75-2.0 mCi/kg | – | – | – | – | – |
| Sm-153-ethylenediaminetetramethylenephosphonic acid [Sm-153-EDTMP] | – | – | – | – | 1.0 mCi/kg | significant amounts of activity detected in patients, which increased with each dose given thereafter | lesion regression | improved survival | increases with every treatment | apparent |
